Measured values as given in patent publication US20150094220A1, “METHOD TO PREDICT THE SAFETY OF THE TREATMENT WITH A NICOTINIC CHOLINERGIC RECEPTOR AGONIST” (GENETRACER BIOTECH S.L, priority 2012, published 2015).

Key:
[1] = Observational pharmacogenetic study: treatment suspension due to adverse effects in smokers treated with varenicline; assay type: in vivo, human
Experimental: (§1) In a study conducted on 807 patients from the Tobacco Addiction Units of 22 hospitals and health centers in Spain and Portugal, more than 300 SNPs relating to the relevant pathways with respect to the efficacy of the 3 first-line pharmacological tobacco cessation treatments were assessed: nicotine replacement therapy (NRT), bupropion and varenicline. The safety was assessed after three months of abstinence from tobacco consumption in relation to the presence of adverse effects which determined the reduction or withdrawal of the initially applied treatment.
(§2) The analysis process was carried out after applying the usual checks for correcting data entry errors. The status of the subjects was first characterized either as “cases” or as “controls”, depending on the safety results obtained after 3 months of follow-up after the establishment of the chosen tobacco cessation treatment. Those individuals in whom (a) it was necessary to reduce the dose of the chosen treatment due to the presence of treatment-related adverse effects, or (b) it was necessary to suspend or change the treatment due to intolerance to same according to the assessment of his/her doctor, were considered as “cases”. The different statistical analysis models thus provided information about the safety associated with the presence of a certain genetic pattern.
(§3) To assess the possibility of confounding biases as a result of the mixed population analysis, and also as a control for genotyping errors, the Hardy-Weinberg disequilibrium test was performed both in the “cases” and in the corresponding “controls”. The result of this test was assessed before analyzing the results obtained in the various logistic regression models which were used to assess the association between the specific SNPs and the safety results of the prescribed treatments. The following penetrance models were used in the logistic regression models: dominant, recessive, additive, over-dominant and log-additive. The statistical analyses were performed both with the allelic frequency and with the genotypic frequency, the latter being those which provide the most information about the associations to be replicated. All the results were presented as odds-ratios (OR) with the corresponding 95% confidence intervals and statistical significance value thereof.
(§4) Finally, the discriminating power of the different genetic indicators (SNPs) analyzed with respect to the safety results was assessed by means of […] and area under the curve analysis. The final purpose of this analysis strategy was to enable estimating the probability of adverse effects that a subject with a certain genotypic profile who starts a tobacco cessation treatment (particularly with varenicline) may have and adjusting and monitoring his/her treatment based on this information.
(§5) For the purpose of determining the pharmacogenetic profile associated with the safety of a pharmacological smoking cessation treatment, the results obtained in terms of abstinence from tobacco consumption after 3 months were evaluated in relation to the presence of adverse effects which determined the reduction or withdrawal of the initially applied treatment. The subjects were divided into three groups which were treated with NRT, bupropion or varenicline.
(§6) It is an observational study with the intervention of 21 Tobacco Addiction Units from the public health services in Spain and Portugal. A total of 807 subjects were invited to participate in the study, 798 of whom provided their sociodemographic and clinical data taking a test with 144 items. They also provided a biological sample for subsequent genotyping. 483 individuals were treated with varenicline. The information of both the phenotypic and genotypic variables was collected for 479 patients treated with varenicline before establishing the pharmacological treatment.
(§7) The clinical results were linked to the safety of the pharmacological treatments. […]

[2] = Observational pharmacogenetic study: dose reduction due to adverse effects in smokers treated with varenicline; assay type: in vivo, human; settings: for Linear OR, dose reduction due to adverse effects: linear model
Experimental: as §1, §2, §3, §4, §5, §6, §7

[3] = 1 mg twice a day, 3-month treatment studies; cited from earlier work
[4] = oral; cited from earlier work
[5] = target: α4β2 neuronal nicotinic acetylcholine receptor subtype (Homo sapiens, UniProt P17787+P43681); settings: selective partial agonist; cited from earlier work
α4β2 neuronal nicotinic acetylcholine receptor subtype, sequence (P43681 29-627 limits assumed): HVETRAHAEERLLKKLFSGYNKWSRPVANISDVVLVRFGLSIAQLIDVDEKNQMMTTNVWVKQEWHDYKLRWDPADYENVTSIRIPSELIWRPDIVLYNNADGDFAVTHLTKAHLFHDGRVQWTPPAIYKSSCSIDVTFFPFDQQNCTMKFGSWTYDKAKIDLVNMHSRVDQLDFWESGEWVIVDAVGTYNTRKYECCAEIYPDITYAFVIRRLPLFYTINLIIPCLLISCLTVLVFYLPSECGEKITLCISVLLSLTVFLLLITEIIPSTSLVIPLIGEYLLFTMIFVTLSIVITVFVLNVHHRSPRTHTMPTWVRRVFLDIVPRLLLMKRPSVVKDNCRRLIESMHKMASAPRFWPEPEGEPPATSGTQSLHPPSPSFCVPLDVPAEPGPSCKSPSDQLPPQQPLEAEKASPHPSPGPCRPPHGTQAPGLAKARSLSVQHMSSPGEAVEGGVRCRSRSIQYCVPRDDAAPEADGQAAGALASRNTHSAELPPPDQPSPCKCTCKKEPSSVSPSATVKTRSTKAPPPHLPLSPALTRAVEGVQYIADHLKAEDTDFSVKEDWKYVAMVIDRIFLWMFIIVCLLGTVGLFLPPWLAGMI
α4β2 neuronal nicotinic acetylcholine receptor subtype, sequence (P17787 26-502): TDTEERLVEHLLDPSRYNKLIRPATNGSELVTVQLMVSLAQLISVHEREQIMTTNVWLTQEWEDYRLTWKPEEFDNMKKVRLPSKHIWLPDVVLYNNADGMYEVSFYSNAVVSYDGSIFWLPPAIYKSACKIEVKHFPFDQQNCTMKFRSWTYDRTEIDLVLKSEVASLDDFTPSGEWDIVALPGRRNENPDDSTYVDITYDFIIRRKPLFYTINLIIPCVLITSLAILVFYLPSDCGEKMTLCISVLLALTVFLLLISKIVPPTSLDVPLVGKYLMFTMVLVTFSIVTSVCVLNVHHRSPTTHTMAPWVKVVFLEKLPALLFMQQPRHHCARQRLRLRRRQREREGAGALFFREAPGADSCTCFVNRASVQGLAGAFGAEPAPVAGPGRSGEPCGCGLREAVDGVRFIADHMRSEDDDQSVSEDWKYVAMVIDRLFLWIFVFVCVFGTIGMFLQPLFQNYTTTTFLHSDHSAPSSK

## c1cnc2cc3c(cc2n1)C1CNCC3C1 [varenicline, 7,8,9,10-tetrahydro-6,10-methane-6H-pyrazino[2,3-h][3]benzazepine]
[1]; human, in vivo, 3 months
  Linear OR, treatment suspension due to adverse effects: 2.43
  OR (95% CI), alleles, treatment suspension due to adverse effects: 2.41
[1]; rs7146 (C19orf6) alleles C, T
  OR (95% CI), alleles, treatment suspension due to adverse effects: 1.83
[1]; rs7146 (C19orf6) genotype C/C (reference)
  OR, treatment suspension due to adverse effects: 1.00
[1]; rs7146 (C19orf6) genotype C/T
  OR, treatment suspension due to adverse effects: 1.61
[1]; rs7146 (C19orf6) genotype T/T
  OR, treatment suspension due to adverse effects: 4.05
[1]; rs7146 (C19orf6) genotype, linear model
  Linear OR, treatment suspension due to adverse effects: 1.93
[1]; rs477292 (OPRM1) alleles G, A
  OR (95% CI), alleles, treatment suspension due to adverse effects: 1.91
[1]; rs477292 (OPRM1) genotype A/A
  OR, treatment suspension due to adverse effects: 3.54
[1]; rs477292 (OPRM1) genotype A/G
  OR, treatment suspension due to adverse effects: 2.13
[1]; rs477292 (OPRM1) genotype G/G (reference)
  OR, treatment suspension due to adverse effects: 1.00
[1]; rs477292 (OPRM1) genotype, linear model
  Linear OR, treatment suspension due to adverse effects: 1.99
[1]; rs495491 (OPRM1) alleles T, C
  OR (95% CI), alleles, treatment suspension due to adverse effects: 2.08
[1]; rs495491 (OPRM1) genotype C/C
  OR, treatment suspension due to adverse effects: 3.80
[1]; rs495491 (OPRM1) genotype C/T
  OR, treatment suspension due to adverse effects: 2.77
[1]; rs495491 (OPRM1) genotype T/T (reference)
  OR, treatment suspension due to adverse effects: 1.00
[1]; rs495491 (OPRM1) genotype, linear model
  Linear OR, treatment suspension due to adverse effects: 2.19
[1]; rs3778151 (OPRM1) alleles T, C
  OR (95% CI), alleles, treatment suspension due to adverse effects: 2.40
[1]; rs3778151 (OPRM1) genotype C/C
  OR, treatment suspension due to adverse effects: 8.48
[1]; rs3778151 (OPRM1) genotype C/T
  OR, treatment suspension due to adverse effects: 2.26
[1]; rs3778151 (OPRM1) genotype T/T (reference)
  OR, treatment suspension due to adverse effects: 1.00
[1]; rs3778151 (OPRM1) genotype, linear model
  Linear OR, treatment suspension due to adverse effects: 2.55
[1]; rs7930792 (UBASH3B) alleles C, G
  OR (95% CI), alleles, treatment suspension due to adverse effects: 0.52
[1]; rs7930792 (UBASH3B) genotype C/C (reference)
  OR, treatment suspension due to adverse effects: 1.00
[1]; rs7930792 (UBASH3B) genotype C/G
  OR, treatment suspension due to adverse effects: 0.58
[1]; rs7930792 (UBASH3B) genotype G/G
  OR, treatment suspension due to adverse effects: 0.21
[1]; rs7930792 (UBASH3B) genotype, linear model
  Linear OR, treatment suspension due to adverse effects: 0.52
[1]; rs9479757 (OPRM1) alleles G, A
  OR (95% CI), alleles, treatment suspension due to adverse effects: 3.27
[1]; rs9479757 (OPRM1) genotype A/A
  OR, treatment suspension due to adverse effects: 12.30
[1]; rs9479757 (OPRM1) genotype A/G
  OR, treatment suspension due to adverse effects: 3.46
[1]; rs9479757 (OPRM1) genotype G/G (reference)
  OR, treatment suspension due to adverse effects: 1.00
[1]; rs9479757 (OPRM1) genotype, linear model
  Linear OR, treatment suspension due to adverse effects: 3.47
[1]; rs12423809 (C12orf36) alleles A, C
  OR (95% CI), alleles, treatment suspension due to adverse effects: 1.91
[1]; rs12423809 (C12orf36) genotype A/A (reference)
  OR, treatment suspension due to adverse effects: 1.00
[1]; rs12423809 (C12orf36) genotype A/C
  OR, treatment suspension due to adverse effects: 1.59
[1]; rs12423809 (C12orf36) genotype C/C
  OR, treatment suspension due to adverse effects: 3.53
[1]; rs12423809 (C12orf36) genotype, linear model
  Linear OR, treatment suspension due to adverse effects: 1.87
[2]; rs763132 (ARHGAP18) alleles T, G
  OR (95% CI), alleles, dose reduction due to adverse effects: 0.43
[2]; rs763132 (ARHGAP18) genotype G/G
  OR, dose reduction due to adverse effects: 0.13
[2]; rs763132 (ARHGAP18) genotype G/T
  OR, dose reduction due to adverse effects: 0.49
[2]; rs763132 (ARHGAP18) genotype T/T (reference)
  OR, dose reduction due to adverse effects: 1.00
[2]; rs763132 (ARHGAP18) genotype
  Linear OR, dose reduction due to adverse effects: 0.44
[2]; rs1183035 (MAOB) alleles T, C
  OR (95% CI), alleles, dose reduction due to adverse effects: 0.28
[2]; rs1183035 (MAOB) genotype C/C
  OR, dose reduction due to adverse effects: 0.00
[2]; rs1183035 (MAOB) genotype C/T
  OR, dose reduction due to adverse effects: 0.83
[2]; rs1183035 (MAOB) genotype T/T (reference)
  OR, dose reduction due to adverse effects: 1.00
[2]; rs1183035 (MAOB) genotype
  Linear OR, dose reduction due to adverse effects: 0.42
[2]; rs4474069 (RAPGEF1) alleles C, T
  OR (95% CI), alleles, dose reduction due to adverse effects: 1.82
[2]; rs4474069 (RAPGEF1) genotype C/C (reference)
  OR, dose reduction due to adverse effects: 1.00
[2]; rs4474069 (RAPGEF1) genotype C/T
  OR, dose reduction due to adverse effects: 2.68
[2]; rs4474069 (RAPGEF1) genotype T/T
  OR, dose reduction due to adverse effects: 1.33
[2]; rs4474069 (RAPGEF1) genotype
  Linear OR, dose reduction due to adverse effects: 1.87
[3]
  treatment withdrawal rate due to adverse effects: 12%
  withdrawal rate due to headache: 0.6%
  withdrawal rate due to insomnia: 1.2%
  withdrawal rate due to nausea: 3%
  withdrawal rate due to sleep alterations: 0.3%
[4]
  absorption: complete
  systemic availability: high
  time of maximum plasma concentrations after intake: 3 to 4 h
[5]
  affinity: high affinity
